Assay results from US20170050957A1, “4-AMINO-6-(HETEROCYCLIC)PICOLINATES AND 6-AMINO-2-(HETEROCYCLIC)PYRIMIDINE-4-CARBOXYLATES AND THEIR USE AS HERBICIDES” (Dow AgroSciences LLC, priority 2013, published 2017).

Experiments:
[1] = system: Wheat and Barley and test plant species; test: Post-emergent Test III, herbicidal activity in wheat and barley (Table 17; visual injury, GR20/GR50/GR80/GR90); format: in vivo; settings: 21 d; for Visual Growth Reduction (%) 21 Days After Application, CIRAR / Visual Growth Reduction (%) 21 Days After Application, GALAP / Visual Growth Reduction (%) 21 Days After Application, HORVS / Visual Growth Reduction (%) 21 Days After Application, KCHSC / Visual Growth Reduction (%) 21 Days After Application, LAMPU / Visual Growth Reduction (%) 21 Days After Application, MATCH / Visual Growth Reduction (%) 21 Days After Application, PAPRH / Visual Growth Reduction (%) 21 Days After Application, SASKR / Visual Growth Reduction (%) 21 Days After Application, SINAR / Visual Growth Reduction (%) 21 Days After Application, TRZAS / Visual Growth Reduction (%) 21 Days After Application, VERPE / Visual Growth Reduction (%) 21 Days After Application, VIOTR: post-emergent
Procedure: Post-emergent Test III. Seeds of the desired test plant species were planted in Sun Gro MetroMix® 306 planting mixture, which typically has a pH of 6.0 to 6.8 and an organic matter content of about 30 percent, in plastic pots with a surface area of 103.2 square centimeters (cm^2). When required to ensure good germination and healthy plants, a fungicide treatment and/or other chemical or physical treatment was applied. The plants were grown for 7-36 days (d) in a greenhouse with an approximate 14 hour (h) photoperiod which was maintained at about 18° C. during the day and 17° C. during the night. Nutrients and water were added on a regular basis and supplemental lighting was provided with overhead metal halide 1000-Watt lamps as necessary. The plants were employed for testing when they reached the second or third true leaf stage.
A weighed amount, determined by the highest rate to be tested, of each test compound was placed in a 25 mL glass vial and was dissolved in 4 mL of a 97:3 v/v mixture of acetone and DMSO to obtain concentrated stock solutions. […] The concentrated stock solutions obtained were diluted with 20 mL of an aqueous mixture containing acetone, water, isopropyl alcohol, DMSO, Agri-Dex crop oil concentrate, and X-77 surfactant in a 48:39:10:1.5:1.5:0.02 v/v ratio to obtain spray solutions containing the highest application rates. Additional application rates were obtained by serial dilution of 12 mL of the high rate solution into a solution containing 2 mL of 97:3 v/v mixture of acetone and DMSO and 10 mL of an aqueous mixture containing acetone, water, isopropyl alcohol, DMSO, Agri-Dex crop oil concentrate, and X-77 surfactant in a 48:39:10:1.5:1.5:0.02 v/v ratio to obtain 1/2×, 1/4×, 1/8× and 1/16× rates of the high rate. Compound requirements are based upon a 12 mL application volume at a rate of 187 liters per hectare (L/ha). Formulated compounds were applied to the plant material with an overhead Mandel track sprayer equipped with 8002E nozzles calibrated to deliver 187 L/ha over an application area of 0.503 square meters at a spray height of 18 inches (43 cm) above the average plant canopy height. Control plants were sprayed in the same manner with the solvent blank.
The treated plants and control plants were placed in a greenhouse as described above and watered by subirrigation to prevent wash-off of the test compounds. After 21 d, the condition of the test plants as compared with that of the untreated plants was determined visually and scored on a scale of 0 to 100 percent where 0 corresponds to no injury and 100 corresponds to complete kill. By applying the well-accepted probit analysis as described by J. Berkson in Journal of the American Statistical […], 48, 565 (1953) and by D. Finney in “Probit Analysis” Cambridge University Press (1952), the above data can be used to calculate GR20, GR50, GR80 and GR90 values, which are defined as growth reduction factors that correspond to the effective dose of herbicide required to kill or control 20 percent, 50 percent, 80 percent or 90 percent, respectively, of a target plant.

undesirable vegetation = test: Herbicidal activity, comparison X is CF with X is CH; format: in vivo; settings: 1.08 and 1.09 vs 1.21 and 1.22; 1.15 and 1.16 vs 1.23 and 1.24; A is A15

## Nc1c(F)c(-c2ccc3cc[nH]c3c2F)nc(C(=O)O)c1Cl [Compound 1.16, 4-Amino-3-chloro-5-fluoro-6-(7-fluoro-1H-indol-6-yl)picolinic acid]
[1]; CIRAR, 17.5 g ai/ha
  Visual Growth Reduction (%) 21 Days After Application, CIRAR: D (60-74)
[1]; CIRAR, 35 g ai/ha
  Visual Growth Reduction (%) 21 Days After Application, CIRAR: B (85-94)
[1]; CIRAR, 70 g ai/ha
  Visual Growth Reduction (%) 21 Days After Application, CIRAR: A (95-100)
[1]; CIRAR, dose for 50 percent growth reduction, probit analysis
  GR50, CIRAR: 9 g ai/ha
[1]; CIRAR, dose for 80 percent growth reduction, probit analysis
  GR80, CIRAR: 25 g ai/ha
[1]; CIRAR, dose for 90 percent growth reduction, probit analysis
  GR90, CIRAR: 43 g ai/ha
[1]; GALAP, 17.5 g ai/ha
  Visual Growth Reduction (%) 21 Days After Application, GALAP: F (30-44)
[1]; GALAP, 35 g ai/ha
  Visual Growth Reduction (%) 21 Days After Application, GALAP: E (45-59)
[1]; GALAP, 70 g ai/ha
  Visual Growth Reduction (%) 21 Days After Application, GALAP: A (95-100)
[1]; GALAP, dose for 50 percent growth reduction, probit analysis
  GR50, GALAP: 26 g ai/ha
[1]; GALAP, dose for 80 percent growth reduction, probit analysis
  GR80, GALAP: 34 g ai/ha
[1]; GALAP, dose for 90 percent growth reduction, probit analysis
  GR90, GALAP: 40 g ai/ha
[1]; HORVS, 17.5 g ai/ha
  Visual Growth Reduction (%) 21 Days After Application, HORVS: G (0-29)
[1]; HORVS, 35 g ai/ha
  Visual Growth Reduction (%) 21 Days After Application, HORVS: G (0-29)
[1]; HORVS, 70 g ai/ha
  Visual Growth Reduction (%) 21 Days After Application, HORVS: F (30-44)
[1]; HORVS, dose for 20 percent growth reduction, probit analysis
  GR20, HORVS: 44 g ai/ha
[1]; KCHSC, 17.5 g ai/ha
  Visual Growth Reduction (%) 21 Days After Application, KCHSC: C (75-84)
[1]; KCHSC, 35 g ai/ha
  Visual Growth Reduction (%) 21 Days After Application, KCHSC: B (85-94)
[1]; KCHSC, 70 g ai/ha
  Visual Growth Reduction (%) 21 Days After Application, KCHSC: A (95-100)
[1]; KCHSC, dose for 50 percent growth reduction, probit analysis
  GR50, KCHSC: 7 g ai/ha
[1]; KCHSC, dose for 80 percent growth reduction, probit analysis
  GR80, KCHSC: 20 g ai/ha
[1]; KCHSC, dose for 90 percent growth reduction, probit analysis
  GR90, KCHSC: 39 g ai/ha
[1]; LAMPU, 17.5 g ai/ha
  Visual Growth Reduction (%) 21 Days After Application, LAMPU: C (75-84)
[1]; LAMPU, 35 g ai/ha
  Visual Growth Reduction (%) 21 Days After Application, LAMPU: A (95-100)
[1]; LAMPU, 70 g ai/ha
  Visual Growth Reduction (%) 21 Days After Application, LAMPU: A (95-100)
[1]; LAMPU, dose for 50 percent growth reduction, probit analysis
  GR50, LAMPU: 3 g ai/ha
[1]; LAMPU, dose for 80 percent growth reduction, probit analysis
  GR80, LAMPU: 10 g ai/ha
[1]; LAMPU, dose for 90 percent growth reduction, probit analysis
  GR90, LAMPU: 19 g ai/ha
[1]; MATCH, 17.5 g ai/ha
  Visual Growth Reduction (%) 21 Days After Application, MATCH: B (85-94)
[1]; MATCH, 35 g ai/ha
  Visual Growth Reduction (%) 21 Days After Application, MATCH: A (95-100)
[1]; MATCH, 70 g ai/ha
  Visual Growth Reduction (%) 21 Days After Application, MATCH: A (95-100)
[1]; MATCH, dose for 50 percent growth reduction, probit analysis
  GR50, MATCH: 3 g ai/ha
[1]; MATCH, dose for 80 percent growth reduction, probit analysis
  GR80, MATCH: 9 g ai/ha
[1]; MATCH, dose for 90 percent growth reduction, probit analysis
  GR90, MATCH: 16 g ai/ha
[1]; PAPRH, 17.5 g ai/ha
  Visual Growth Reduction (%) 21 Days After Application, PAPRH: A (95-100)
[1]; PAPRH, 35 g ai/ha
  Visual Growth Reduction (%) 21 Days After Application, PAPRH: A (95-100)
[1]; PAPRH, 70 g ai/ha
  Visual Growth Reduction (%) 21 Days After Application, PAPRH: A (95-100)
[1]; PAPRH, dose for 50 percent growth reduction, probit analysis
  GR50, PAPRH: 0.0004 g ai/ha
[1]; PAPRH, dose for 80 percent growth reduction, probit analysis
  GR80, PAPRH: 0.0004 g ai/ha
[1]; PAPRH, dose for 90 percent growth reduction, probit analysis
  GR90, PAPRH: 0.0004 g ai/ha
[1]; SASKR, 17.5 g ai/ha
  Visual Growth Reduction (%) 21 Days After Application, SASKR: D (60-74)
[1]; SASKR, 35 g ai/ha
  Visual Growth Reduction (%) 21 Days After Application, SASKR: C (75-84)
[1]; SASKR, 70 g ai/ha
  Visual Growth Reduction (%) 21 Days After Application, SASKR: B (85-94)
[1]; SASKR, dose for 50 percent growth reduction, probit analysis
  GR50, SASKR: 10 g ai/ha
[1]; SASKR, dose for 80 percent growth reduction, probit analysis
  GR80, SASKR: 28 g ai/ha
[1]; SASKR, dose for 90 percent growth reduction, probit analysis
  GR90, SASKR: 78 g ai/ha
[1]; SINAR, 17.5 g ai/ha
  Visual Growth Reduction (%) 21 Days After Application, SINAR: B (85-94)
[1]; SINAR, 35 g ai/ha
  Visual Growth Reduction (%) 21 Days After Application, SINAR: A (95-100)
[1]; SINAR, 70 g ai/ha
  Visual Growth Reduction (%) 21 Days After Application, SINAR: A (95-100)
[1]; SINAR, dose for 50 percent growth reduction, probit analysis
  GR50, SINAR: 5 g ai/ha
[1]; SINAR, dose for 80 percent growth reduction, probit analysis
  GR80, SINAR: 11 g ai/ha
[1]; SINAR, dose for 90 percent growth reduction, probit analysis
  GR90, SINAR: 17 g ai/ha
[1]; TRZAS, 17.5 g ai/ha
  Visual Growth Reduction (%) 21 Days After Application, TRZAS: G (0-29)
[1]; TRZAS, 35 g ai/ha
  Visual Growth Reduction (%) 21 Days After Application, TRZAS: G (0-29)
[1]; TRZAS, 70 g ai/ha
  Visual Growth Reduction (%) 21 Days After Application, TRZAS: F (30-44)
[1]; TRZAS, dose for 20 percent growth reduction, probit analysis
  GR20, TRZAS: 41 g ai/ha
[1]; VERPE, 17.5 g ai/ha
  Visual Growth Reduction (%) 21 Days After Application, VERPE: A (95-100)
[1]; VERPE, 35 g ai/ha
  Visual Growth Reduction (%) 21 Days After Application, VERPE: A (95-100)
[1]; VERPE, 70 g ai/ha
  Visual Growth Reduction (%) 21 Days After Application, VERPE: A (95-100)
[1]; VERPE, dose for 50 percent growth reduction, probit analysis
  GR50, VERPE: 0.0004 g ai/ha
[1]; VERPE, dose for 80 percent growth reduction, probit analysis
  GR80, VERPE: 0.05 g ai/ha
[1]; VERPE, dose for 90 percent growth reduction, probit analysis
  GR90, VERPE: 1 g ai/ha
[1]; VIOTR, 17.5 g ai/ha
  Visual Growth Reduction (%) 21 Days After Application, VIOTR: E (45-59)
[1]; VIOTR, 35 g ai/ha
  Visual Growth Reduction (%) 21 Days After Application, VIOTR: D (60-74)
[1]; VIOTR, 70 g ai/ha
  Visual Growth Reduction (%) 21 Days After Application, VIOTR: C (75-84)
[1]; VIOTR, dose for 50 percent growth reduction, probit analysis
  GR50, VIOTR: 19 g ai/ha
[1]; VIOTR, dose for 80 percent growth reduction, probit analysis
  GR80, VIOTR: 56 g ai/ha
[1]; VIOTR, dose for 90 percent growth reduction, probit analysis
  GR90, VIOTR: 99 g ai/ha
Undesirable vegetation
  activity when X is CF compared with X is CH: significant increase in activity
